The numbers were not newly measured in patent publication US10694745B2, “Method for controlling rust” (UPL LIMITED, priority 2013, dated 2020), which cites them from elsewhere.

The test system of one series is Phakopsora pachyrhizi. The conditions noted are these: single fungicide.
For a further series, the system named is soybean. The conditions noted are these: in vivo.

On to `CO/C=C(/C(=O)OC)c1ccccc1Oc1cc(Oc2ccccc2C#N)ncn1` [Azoxystrobin], for which the “control of soybean rust” value with Phakopsora pachyrhizi is on record as “good control”. As to `O=C(Nc1ccccc1-c1ccc(Cl)cc1)c1cccnc1Cl` [Boscalid], in the series on Phakopsora pachyrhizi, the “control of soybean rust” value is listed as “moderate control”. With `c1ccc2[nH]c(-c3cscn3)nc2c1` [Thiabendazole], the “phytotoxicity” value in the series with soybean was “phytotoxic”.
